# Reference: ChEMBL document CHEMBL5346933, “Design and synthesis of novel arylurea derivatives of aryloxy(1-phenylpropyl) alicyclic diamines with antimicrobial activity against multidrug-resistant Gram-positive bacteria” (Eur J Med Chem, 2023)
# Active and inactive are the calls of the source. The calls are words filed in the database; no cut-off is given here.
# Columns and labels:
# [1] = Induction of hemolysis in horse RBC at 200 uM incubated for 1 hr; type: toxicity, cell-based, Equus caballus, Erythrocyte; details: horse red blood cells (erythrocytes), read-out: Activity
# [2] = tested on: Staphylococcus epidermidis; assay: Antibacterial activity against biofilm producer Staphylococcus epidermidis ATCC 35984 assessed as inhibition of bacterial growth incubated for 18 hrs by broth microdilution method; type: functional
# Staphylococcus aureus [3] = assay: Antibacterial activity against biofilm producer Staphylococcus aureus RN450 assessed as inhibition of bacterial growth incubated for 18 hrs by broth microdilution method; type: functional
# [4] = Cytotoxicity against human BJ cells assessed as reduction in cell viability incubated for 24 hrs by MTT assay; type: toxicity, cell-based
# Enterococcus faecalis = assay: Antibacterial activity against Enterococcus faecalis ATCC 29212 assessed as inhibition of bacterial growth incubated for 18 hrs by broth microdilution method; type: functional
# Staphylococcus aureus [5] = assay: Antibacterial activity against methicillin-susceptible Staphylococcus aureus ATCC 25923 assessed as inhibition of bacterial growth incubated for 18 hrs by broth microdilution method; type: functional
# Klebsiella pneumoniae = assay: Antibacterial activity against Klebsiella pneumoniae ATCC 700603 assessed as inhibition of bacterial growth incubated for 18 hrs by broth microdilution method; type: functional
# Staphylococcus aureus [6] = assay: Antibacterial activity against methicillin-resistant Staphylococcus aureus clinical strain 19449 assessed as inhibition of bacterial growth incubated for 18 hrs by broth microdilution method; type: functional
# Staphylococcus aureus [7] = assay: Antibacterial activity against vancomycin-intermediate Staphylococcus aureus ATCC 700699 assessed as inhibition of bacterial growth incubated for 18 hrs by broth microdilution method; type: functional
# [8] = tested on: Staphylococcus epidermidis; assay: Antibacterial activity against methicillin-susceptible Staphylococcus epidermidis ATCC 12228 assessed as inhibition of bacterial growth incubated for 18 hrs by broth microdilution method; type: functional
# [9] = tested on: Staphylococcus epidermidis; assay: Antibacterial activity against linezolid-resistant Staphylococcus epidermidis NIL 4399/19 assessed as inhibition of bacterial growth incubated for 18 hrs by broth microdilution method; type: functional
# Escherichia coli = assay: Antibacterial activity against Escherichia coli ATCC 25922 assessed as inhibition of bacterial growth incubated for 18 hrs by broth microdilution method; type: functional
# Enterococcus faecium = assay: Antibacterial activity against vancomycin-resistant Enterococcus faecium assessed as inhibition of bacterial growth incubated for 18 hrs by broth microdilution method; type: functional
# Pseudomonas aeruginosa = assay: Antibacterial activity against Pseudomonas aeruginosa ATCC 27853 assessed as inhibition of bacterial growth incubated for 18 hrs by broth microdilution method; type: functional
# Streptococcus pneumoniae [10] = assay: Antibacterial activity against Streptococcus pneumoniae ATCC 49619 assessed as inhibition of bacterial growth incubated for 18 hrs by broth microdilution method; type: functional
# [11] = Cytotoxicity against human MRC5 cells assessed as reduction in cell viability incubated for 24 hrs by MTT assay; type: toxicity, cell-based
# Streptococcus pneumoniae [12] = assay: Antibacterial activity against Oxacillin-resistant Streptococcus pneumoniae O/19/4541 assessed as inhibition of bacterial growth incubated for 18 hrs by broth microdilution method; type: functional
# Staphylococcus aureus [13] = assay: Antibacterial activity against Staphylococcus aureus Newman assessed as inhibition of bacterial growth incubated for 18 hrs by broth microdilution method; type: functional
# Streptococcus pneumoniae [14] = assay: Antibacterial activity against macrolides-lincosamides and streptogramins B-resistant Streptococcus pneumoniae O/19/4199 assessed as inhibition of bacterial growth incubated for 18 hrs by broth microdilution method; type: functional
# [15] = Cytotoxicity against human BJ cells assessed as cell viability at 25 ug/ml incubated for 24 hrs by MTT assay; type: toxicity, cell-based; details: at 25 µg/mL, read-out: Activity
Structure (SMILES),"hemolysis at 1 h, 200 µM [1]",MIC [2],MIC (Staphylococcus aureus [3]),IC50 at 24 h [4],MIC (Enterococcus faecalis),MIC (Staphylococcus aureus [5]),Activity (Klebsiella pneumoniae),MIC (Staphylococcus aureus [6]),MIC (Staphylococcus aureus [7]),MIC [8],MIC [9],Activity (Escherichia coli),MIC (Enterococcus faecium),Activity (Pseudomonas aeruginosa),MIC (Streptococcus pneumoniae [10]),IC50 at 24 h [11],MIC (Streptococcus pneumoniae [12]),MIC (Staphylococcus aureus [13]),MIC (Streptococcus pneumoniae [14]),"viability at 24 h, 25 ug/ml [15]"
O=C(NCC1CCN(CCC(Oc2ccc(C(F)(F)F)cc2)c2ccccc2)CC1)Nc1cccc(Cl)c1 (racemic),5%,1.56 µg/mL,1.56 µg/mL,3.12 µg/mL,3.12 µg/mL,3.12 µg/mL,inactive,3.12 µg/mL,6.25 µg/mL,1.56 µg/mL,3.12 µg/mL,inactive,0.78 µg/mL,inactive,12.5 µg/mL,3.12 µg/mL,,,,
O=C(Nc1cccc(Cl)c1)N[C@H]1CCN(CCC(Oc2ccc(C(F)(F)F)cc2)c2ccccc2)C1 (some centres undefined),10%,3.12 µg/mL,1.56 µg/mL,6.25 µg/mL,3.12 µg/mL,3.12 µg/mL,inactive,3.12 µg/mL,1.56 µg/mL,1.56 µg/mL,1.56 µg/mL,inactive,0.78 µg/mL,inactive,6.25 µg/mL,3.12 µg/mL,,,,
O=C(Nc1cccc(Cl)c1)NC1CCN(CCC(Oc2ccc(Cl)cc2)c2ccccc2)CC1 (racemic),< 1%,1.56 µg/mL,1.56 µg/mL,12.5 µg/mL,3.12 µg/mL,3.12 µg/mL,inactive,3.12 µg/mL,3.12 µg/mL,3.12 µg/mL,3.12 µg/mL,inactive,1.56 µg/mL,inactive,6.25 µg/mL,6.25 µg/mL,,,,
COc1cccc2c1C(=O)c1c(O)c3c(c(O)c1C2=O)C[C@@](O)(C(=O)CO)C[C@@H]3O[C@H]1C[C@H](N)[C@H](O)[C@H](C)O1 [DOXORUBICIN],,,,0.78 µg/mL,,,,,,,,,,,,0.39 µg/mL,,,,
CC(=O)NC[C@H]1CN(c2ccc(N3CCOCC3)c(F)c2)C(=O)O1 [LINEZOLID],,1.56 µg/mL,0.78 µg/mL,,1.56 µg/mL,3.12 µg/mL,,3.12 µg/mL,1.56 µg/mL,1.56 µg/mL,250 µg/mL,,0.78 µg/mL,,0.78 µg/mL,,1.56 µg/mL,1.56 µg/mL,1.56 µg/mL,
O=C(Nc1cccc(Cl)c1)N[C@@H]1CCN(CCC(Oc2ccc(C(F)(F)F)cc2)c2ccccc2)C1 (some centres undefined),9%,1.56 µg/mL,1.56 µg/mL,3.12 µg/mL,3.12 µg/mL,3.12 µg/mL,inactive,3.12 µg/mL,3.12 µg/mL,3.12 µg/mL,3.12 µg/mL,inactive,1.56 µg/mL,inactive,6.25 µg/mL,3.12 µg/mL,,,,
O=C(Nc1cccc(Cl)c1)N[C@H]1CCN(CCC(Oc2cccc(Cl)c2)c2ccccc2)C1 (some centres undefined),8%,3.12 µg/mL,3.12 µg/mL,6.25 µg/mL,3.12 µg/mL,3.12 µg/mL,inactive,3.12 µg/mL,3.12 µg/mL,3.12 µg/mL,3.12 µg/mL,inactive,0.78 µg/mL,inactive,6.25 µg/mL,3.12 µg/mL,,,,
O=C(Nc1cccc(Cl)c1)N[C@H]1CCN(CCC(Oc2ccc(Cl)cc2)c2ccccc2)C1 (some centres undefined),11%,3.12 µg/mL,3.12 µg/mL,6.25 µg/mL,3.12 µg/mL,6.25 µg/mL,inactive,6.25 µg/mL,1.56 µg/mL,1.56 µg/mL,6.25 µg/mL,inactive,3.12 µg/mL,inactive,6.25 µg/mL,3.12 µg/mL,,,,
O=C(NCC1CCN(CCC(Oc2ccc(Cl)cc2)c2ccccc2)CC1)Nc1cccc(Cl)c1 (racemic),6%,3.12 µg/mL,3.12 µg/mL,12.5 µg/mL,3.12 µg/mL,6.25 µg/mL,inactive,6.25 µg/mL,3.12 µg/mL,3.12 µg/mL,6.25 µg/mL,inactive,0.39 µg/mL,inactive,6.25 µg/mL,3.12 µg/mL,,,,
CN[C@H](CC(C)C)C(=O)N[C@H]1C(=O)N[C@@H](CC(N)=O)C(=O)N[C@H]2C(=O)N[C@H]3C(=O)N[C@H](C(=O)N[C@H](C(=O)O)c4cc(O)cc(O)c4-c4cc3ccc4O)[C@H](O)c3ccc(c(Cl)c3)Oc3cc2cc(c3O[C@@H]2O[C@H](CO)[C@@H](O)[C@H](O)[C@H]2O[C@H]2C[C@](C)(N)[C@H](O)[C@H](C)O2)Oc2ccc(cc2Cl)[C@H]1O [VANCOMYCIN],,0.78 µg/mL,,,0.78 µg/mL,0.78 µg/mL,,0.78 µg/mL,6.25 µg/mL,0.78 µg/mL,,,50 µg/mL,,0.39 µg/mL,,0.1 µg/mL,,,
O=C(NCC1CCN(CCC(Oc2cccc(Cl)c2)c2ccccc2)CC1)Nc1cccc(Cl)c1 (racemic),6%,3.12 µg/mL,3.12 µg/mL,6.25 µg/mL,3.12 µg/mL,6.25 µg/mL,inactive,6.25 µg/mL,3.12 µg/mL,1.56 µg/mL,6.25 µg/mL,inactive,1.56 µg/mL,inactive,6.25 µg/mL,3.12 µg/mL,,,,
O=C(Nc1cccc(Cl)c1)NC1CCN(CCC(Oc2cccc(Cl)c2)c2ccccc2)CC1 (racemic),< 1%,1.56 µg/mL,1.56 µg/mL,> 25 µg/mL,3.12 µg/mL,3.12 µg/mL,inactive,3.12 µg/mL,3.12 µg/mL,3.12 µg/mL,3.12 µg/mL,inactive,1.56 µg/mL,inactive,6.25 µg/mL,6.25 µg/mL,,,,91%
